{"source": "paper PMC6591177", "about": "“Small Molecule IL-36γ Antagonist as a Novel Therapeutic Approach for Plaque Psoriasis” (Scientific Reports, 2019)", "molecules": {"B1": {"name": "human IL-36Ra (2–155) (ligand, UniProt Q9UBH0 2-155, looked up)", "chain": "VLSGALCFRMKDSALKVLYLHNNQLLAGGLHAGKVIKGEEISVVPNRWLDASLSPVILGVQGGSQCLSCGVGQEPTLTLEPVNIMELYLGAKESKSFTFYRRDMGLTSSFESAAYPGWFLCTVPEADQPVRLTQLPENGGWNAPITDFYFQQCD", "notes": "human IL-36 receptor antagonist (IL-36Ra), residues 2-155; also called hIL-36Ra; recombinant soluble hIL-36Ra; source: E. coli BL21 (DE3), purified (nickel column, ULP1 cleavage, Superdex 75 gel filtration); not shown: His6, N-terminal, cleaved; SUMO, N-terminal, cleaved"}, "B2": {"name": "N-terminal labeled Alexa 488 human IL-36γ (ligand, UniProt Q9NZH8 18-169, looked up)", "chain": "SMCKPITGTINDLNQQVWTLQGQNLVAVPRSDSVTPVTVAVITCKYPEALEQGRGDPIYLGIQNPEMCLYCEKVGEQPTLQLKEQKIMDLYGQPEPVKPFLFYRAKTGRTSTLESVAFPDWFIASSKRDQPIILTSELGKSYNTAFELNIND", "modifications": "Alexa Fluor 488 (N-hydroxysuccinimidyl ester); called N-terminal labeled", "notes": "human IL-36γ, residues 18-169; Same protein as m3, with the dye; also called Alexa-488 labeled hIL-36γ; NHS-AlexaFluor-488 conjugated human IL-36γ; not shown: His6, N-terminal, cleaved; SUMO, N-terminal, cleaved"}, "B3": {"name": "human IL-36γ: recombinant human IL-36γ (18–169) cytokine, IL-36R agonist (protein)", "chain": "SMCKPITGTINDLNQQVWTLQGQNLVAVPRSDSVTPVTVAVITCKYPEALEQGRGDPIYLGIQNPEMCLYCEKVGEQPTLQLKEQKIMDLYGQPEPVKPFLFYRAKTGRTSTLESVAFPDWFIASSKRDQPIILTSELGKSYNTAFELNIND", "modifications": "left off: His6, N-terminal, cleaved | SUMO, N-terminal, cleaved", "notes": "recombinant human IL-36γ (18–169) cytokine, IL-36R agonist"}, "B4": {"name": "mouse IL-36γ: mouse IL-36γ cytokine (protein, UniProt Q8R460 13-164, looked up)", "Interleukin-36 gamma": "GRETPDFGEVFDLDQQVWIFRNQALVTVPRSHRVTPVSVTILPCKYPESLEQDKGIAIYLGIQNPDKCLFCKEVNGHPTLLLKEEKILDLYHHPEPMKPFLFYHTRTGGTSTFESVAFPGHYIASSKTGNPIFLTSKKGEYYNINFNLDIKS"}}, "key": {"[1]": {"system": "IL-1β evoked IL-8 release from HaCaT cells", "experiment": "IL-1β evoked IL-8 release assay in HaCaT cells", "assay_type": "cell-based, human", "procedure": "(§1) The immortalized human keratinocyte cell line HaCaT and mouse fibroblast NIH-3T3 cell line were maintained in culture in DMEM with 10% fetal bovine serum and 1% penicillin/streptomycin added (Sigma). Cells were seeded in 96-well tissue culture plates (Corning) at 25,000 cells per well and allowed to adhere and recover overnight at 37 °C in an incubator. Cells were rinsed with PBS (Sigma) and treated with cytokines diluted in 200 μL/well of the medium (DMEM with 0.5% FBS and 1% penicillin/streptomycin) as indicated. In inhibition mode, the agonist concentration used was at the EC80 for chemokine production and the cells were pre-treated with inhibitors for 30 min prior to adding the agonist. After 24 h of treatment, supernatants were collected and IL-8 and CXCL1[28] levels were assessed using a custom immunoassay (Meso Scale Discovery). EC50/IC50 values were estimated from a four-parameter logistic fit using Prism software (GraphPad).\n(§2) The IL-8 release assays were miniaturized for HTS hit follow-up. Frozen aliquots of HaCaT cells were thawed, added to complete media, mixed, spun down, resuspended in fresh media, and dispensed using the Multidrop384 into black, clear-bottom 384 well plates at a final density of 4000 cells/well. […] Cell viability was assessed using Cell Titer-Glo (Promega) according to the manufacturers’ instructions."}, "human IL-36γ": {"target": "T1, human IL-36γ (Homo sapiens, UniProt Q9NZH8)", "T1 construct": "His6-SUMO-human IL-36γ (18–169); His6-SUMO (N, cleaved yes); made in house; host or cells: E. coli BL21 (DE3)", "T1 sequence (Q9NZH8 18-169)": "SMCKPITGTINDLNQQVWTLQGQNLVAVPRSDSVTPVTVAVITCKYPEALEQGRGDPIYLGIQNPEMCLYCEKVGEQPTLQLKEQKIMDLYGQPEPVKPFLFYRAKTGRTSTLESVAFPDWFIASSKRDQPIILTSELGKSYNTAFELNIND", "experiment": "Thermal shift assay, human IL-36γ", "assay_type": "binding", "details": "100 μM compound; read-out: increase of melting temperature of human IL-36γ", "procedure": "(§3) Thermal shift assays[30] were performed on a Roche LightCycler 480 instrument using Sypro Orange Dye (Invitrogen). Reactions consisted of 0.5–2 µM purified recombinant protein in PBS, pH 7.4, a 1/500 dilution of the stock Sypro Orange reagent, and 100 µM test compounds, resulting in a final DMSO concentration of 1%. The samples were heated from 20 °C to 95 °C at a rate of 0.25 °C per second."}, "[2]": {"system": "human IL-36γ evoked CXCL1 release from Human HaCaT cells", "experiment": "human IL-36γ evoked CXCL1 release, human HaCaT cells", "assay_type": "cell-based", "details": "± S.D.", "procedure": "as §1"}, "HaCaT cells [3]": {"system": "HaCaT cells", "experiment": "Cell viability (Cell Titer-Glo) counter screen", "assay_type": "cell-based, human", "procedure": "The IL-8 release assays were miniaturized for HTS hit follow-up. Frozen aliquots of HaCaT cells were thawed, added to complete media, mixed, spun down, resuspended in fresh media, and dispensed using the Multidrop384 into black, clear-bottom 384 well plates at a final density of 4000 cells/well. After a 24 h recovery period at 37 °C/5% CO2, the cell plates were rinsed twice with 40 μL/well fresh media. The Biomek FX workstation was then used to add 10 μL/well compounds. Cell plates were then returned to 37 °C for 15 min incubation, followed by the addition of 10 μl/well of IL-36γ (40 ng/ml final). After an additional 5 h of incubation at 37 °C, 5 μl/well of cell supernatant was removed with the Biomek FX and transferred to a 384 well Proxy Plate for IL-8 detection using the HTRF kit from Cisbio. For the IL-1β evoked release of IL-8, the same protocol was followed, but with a final concentration of 1 ng/mL IL-1β and an overnight incubation instead of 5 h. Cell viability was assessed using Cell Titer-Glo (Promega) according to the manufacturers’ instructions."}, "human IL-36α": {"target": "T2, human IL-36α (Homo sapiens, UniProt Q9UHA7)", "T2 construct": "using recombinant truncated proteins", "T2 sequence (Q9UHA7 6-158)": "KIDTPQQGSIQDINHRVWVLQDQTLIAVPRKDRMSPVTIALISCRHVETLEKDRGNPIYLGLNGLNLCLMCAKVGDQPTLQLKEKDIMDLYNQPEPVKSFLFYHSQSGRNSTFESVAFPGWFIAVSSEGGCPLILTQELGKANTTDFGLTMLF", "experiment": "Thermal shift assay / affinity, human IL-36α", "assay_type": "binding", "details": "thermal shift assay at 100 μM (Supplementary Fig. 4)", "procedure": "as §3"}, "[4]": {"system": "IL-36γ evoked CXCL1 release from Mouse NIH-3T3 cells", "experiment": "IL-36γ evoked CXCL1 release, mouse NIH-3T3 cells", "assay_type": "cell-based", "details": "human IL-36γ evoked CXCL1 release, ± S.D.", "procedure": "as §1"}, "[5]": {"target": "T3, human IL-36R/IL-1RAcP extracellular domain (ECD) knob-in-hole Fc (human, UniProt Q9HB29 20-335; Q9NPH3 21-367)", "T3 construct": "human IL-36 receptor subunit (IL-36R), extracellular domain; human IL-1RAcP co-receptor subunit, extracellular domain; Both proteins were engineered with an Fc 'knob-in-hole' to force heterodimerisation; also called hIL-36R/IL-1RAcP ECD knob-in-hole Fc; human IL-36R/IL-1RAcP ECD Fc heterodimer; not shown: His tag (from the nickel column and the Tb-anti-His detection)", "T3 sequence (looked up) 1": "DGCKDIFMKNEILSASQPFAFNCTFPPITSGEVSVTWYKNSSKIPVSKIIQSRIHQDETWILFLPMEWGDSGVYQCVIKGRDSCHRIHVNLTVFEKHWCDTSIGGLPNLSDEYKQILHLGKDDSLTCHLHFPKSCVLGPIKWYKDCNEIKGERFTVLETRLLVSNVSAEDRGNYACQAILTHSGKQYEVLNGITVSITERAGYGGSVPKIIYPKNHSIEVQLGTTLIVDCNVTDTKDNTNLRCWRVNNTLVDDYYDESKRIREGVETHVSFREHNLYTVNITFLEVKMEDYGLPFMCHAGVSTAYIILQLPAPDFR", "T3 sequence (looked up) 2": "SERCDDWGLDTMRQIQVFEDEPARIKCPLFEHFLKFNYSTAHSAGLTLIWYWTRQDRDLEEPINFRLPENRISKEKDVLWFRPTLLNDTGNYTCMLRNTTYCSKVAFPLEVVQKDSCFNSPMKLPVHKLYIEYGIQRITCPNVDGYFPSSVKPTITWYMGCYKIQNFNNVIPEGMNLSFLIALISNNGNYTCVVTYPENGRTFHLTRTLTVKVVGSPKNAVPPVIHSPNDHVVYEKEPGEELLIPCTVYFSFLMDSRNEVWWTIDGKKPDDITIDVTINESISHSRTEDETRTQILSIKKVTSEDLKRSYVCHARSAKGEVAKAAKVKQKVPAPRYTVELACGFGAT", "experiment": "AlphaScreen or HTRF; TR-FRET, competitive mode: unlabeled human IL-36γ or IL-36Ra titrated against 6 nM Alexa 488 human IL-36γ, receptor heterodimer 1.5 μg/mL, 6 nM Tb-anti-His antibody; Ki by the Cheng-Prusoff equation", "details": "both partners purified"}, "IL-36 receptor": {"target": "T4, IL-36 receptor (Homo sapiens, UniProt Q9HB29)", "T4 chain": "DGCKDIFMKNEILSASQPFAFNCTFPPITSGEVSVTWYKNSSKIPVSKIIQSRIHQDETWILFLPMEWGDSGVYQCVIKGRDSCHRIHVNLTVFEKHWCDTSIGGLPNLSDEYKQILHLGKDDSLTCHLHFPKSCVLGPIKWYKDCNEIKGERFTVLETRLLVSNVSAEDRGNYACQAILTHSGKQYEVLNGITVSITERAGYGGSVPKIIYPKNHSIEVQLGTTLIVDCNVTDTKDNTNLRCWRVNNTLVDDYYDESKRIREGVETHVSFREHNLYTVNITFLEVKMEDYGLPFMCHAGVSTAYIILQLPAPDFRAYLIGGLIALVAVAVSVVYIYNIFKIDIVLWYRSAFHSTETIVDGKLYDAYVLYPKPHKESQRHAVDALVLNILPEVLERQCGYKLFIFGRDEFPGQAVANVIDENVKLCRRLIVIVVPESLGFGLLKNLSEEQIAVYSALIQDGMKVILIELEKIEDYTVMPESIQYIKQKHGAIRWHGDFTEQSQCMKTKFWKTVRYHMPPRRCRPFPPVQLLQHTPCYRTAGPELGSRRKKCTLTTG", "experiment": "IL-8 release assay in HaCaT cells"}, "[6]": {"target": "T3, human IL-36R/IL-1RAcP extracellular …", "experiment": "AlphaScreen or HTRF; TR-FRET, direct binding: receptor heterodimer 1.5 μg/mL with 6 nM Tb-anti-His antibody, Alexa 488 IL-36γ titrated; 1% BSA in 1X PBS; overnight at 4 °C, read at room temperature; ratio 520 nm/495 nm", "details": "both partners purified"}, "[7]": {"system": "IL-36γ evoked IL-8 release from HaCaT cells", "experiment": "IL-36γ evoked IL-8 release assay from HaCaT cells", "assay_type": "cell-based, human", "details": "agonist mode, n = 4", "procedure": "as §1, §2"}, "HaCaT cells [8]": {"system": "HaCaT cells", "experiment": "mouse IL-36γ induction of CXCL1 release from HaCaT cells", "assay_type": "cell-based, human", "details": "agonist mode", "procedure": "as §1"}}, "data": [{"molecule": "COC(c1ccccc1)(c1ccccc1)C(Oc1nc(C)cc(-c2ccc(C)c(N)c2)n1)C(=O)O", "note": "(centres unmarked) [Compound A-706]", "values": [{"measurement": "activity in the hIL-1β induced IL-8 release assay", "setting": "[1]", "result": "no activity"}, {"measurement": "ΔTm at 100 µM", "setting": "human IL-36γ", "result": 5.4, "unit": "°C"}, {"measurement": "Ki", "setting": "[2]", "result": "121 ± 32", "unit": "nM"}, {"measurement": "cellular toxicity", "setting": "HaCaT cells [3]", "result": "no activity in the hIL-1β induced IL-8 release assay or cellular toxicity"}, {"measurement": "binding / affinity to human IL-36α", "setting": "human IL-36α", "result": "do not bind"}, {"measurement": "Ki", "setting": "[4]", "result": "181 ± 54", "unit": "nM"}]}, {"molecule": "B1", "values": [{"measurement": "Ki", "setting": "[5]", "result": 2, "unit": "nM"}, {"measurement": "Ki", "setting": "IL-36 receptor", "result": 0.6, "unit": "nM"}]}, {"molecule": "B2", "values": [{"measurement": "EC50", "setting": "[6]", "result": 0.3, "unit": "nM"}]}, {"molecule": "B3", "values": [{"measurement": "EC50", "setting": "[7]", "result": "0.2 ± 0.1", "unit": "nM"}]}, {"molecule": "B4", "values": [{"measurement": "induction of CXCL1 release from HaCaT cells", "setting": "HaCaT cells [8]", "result": "cannot induce CXCL1 release"}]}]}
